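Where inhibition never reached the appropriate level, the endpoint shown equals the highest concentration tested. Otherwise, values were interpolated linearly from a five-concentration, 48-hour dose response in 96-well plates. GI50 is the concentration that inhibits growth by half.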 The source made the active and inactive calls. Rule as the data show it: active = GI50 up to about 1.1 µM and inactive = higher.
Experiments:
Assay in all cases: growth of human tumour cells (NCI), 48 h
[1] = tested on: HCT-116
[2] = tested on: OVCAR-3
[3] = tested on: KM12
[4] = tested on: CCRF-CEM
[5] = tested on: A498
[6] = tested on: UACC-62
[7] = tested on: U-251
[8] = tested on: COLO 205
[9] = tested on: NCI-H226
[10] = tested on: SK-MEL-2
[11] = tested on: SW-620
[12] = tested on: M14
[13] = tested on: MCF7
[14] = tested on: Malme-3M
[15] = tested on: OVCAR-5
[16] = tested on: A549
[17] = tested on: NCI/ADR-RES
[18] = tested on: K562
[19] = tested on: OVCAR-4
[20] = tested on: SR

| Compound | GI50 [1] | GI50 [2] | GI50 [3] | GI50 [4] | GI50 [5] | GI50 [6] | GI50 [7] | GI50 [8] | GI50 [9] | GI50 [10] | GI50 [11] | GI50 [12] | GI50 [13] | GI50 [14] | GI50 [15] | GI50 [16] | GI50 [17] | GI50 [18] | GI50 [19] | GI50 [20] |
| --- | --- | --- | --- | --- | --- | --- | --- | --- | --- | --- | --- | --- | --- | --- | --- | --- | --- | --- | --- | --- |
| c1nc2nc[nH]c(SSc3[nH]cnc4ncnc3-4)c-2n1 | 0.41 µM (active) | < 0.0442 µM (active) | 1.06 µM (active) | 0.202 µM (active) | 14.4 µM (inactive) | < 0.01 µM (active) | 5.68 µM (inactive) | 0.653 µM (active) | 0.476 µM (active) | 8.22 µM (inactive) | 0.824 µM (active) | 1.21 µM (inactive) | 0.136 µM (active) | 0.376 µM (active) | 4.4 µM (inactive) | 13.9 µM (inactive) | 0.217 µM (active) | < 0.0472 µM (active) |  |  |
| Cc1ccc(N(O)C(C)(C)C)cc1 | > 100 µM (inactive) | > 100 µM (inactive) | > 100 µM (inactive) | > 100 µM (inactive) | > 100 µM (inactive) | > 100 µM (inactive) | > 100 µM (inactive) | > 100 µM (inactive) | > 100 µM (inactive) | > 100 µM (inactive) | > 100 µM (inactive) |  | > 100 µM (inactive) | > 100 µM (inactive) | > 100 µM (inactive) | > 100 µM (inactive) | > 100 µM (inactive) | > 100 µM (inactive) | > 100 µM (inactive) |  |
| COc1nc(-c2cn(S(=O)(=O)c3ccc(C)cc3)c3ccc(Br)cc23)cc(C(F)(F)F)c1C#N |  | 18 µM (inactive) | > 100 µM (inactive) | 24.8 µM (inactive) | 52.5 µM (inactive) | 38.8 µM (inactive) | 16.9 µM (inactive) | > 100 µM (inactive) | 18 µM (inactive) | 65.6 µM (inactive) | 66.2 µM (inactive) |  | 50.4 µM (inactive) | > 100 µM (inactive) | 61.5 µM (inactive) | > 100 µM (inactive) | 71.8 µM (inactive) | 27.8 µM (inactive) | 41.4 µM (inactive) |  |
| O=[N+]([O-])c1cc2ncc(-c3ccccc3)c(O)c2cc1/C(Cl)=C/c1ccccc1 | 6.89 µM (inactive) | 2.59 µM (inactive) | 9.12 µM (inactive) | 4.43 µM (inactive) | 16.1 µM (inactive) | 6.97 µM (inactive) | 6.5 µM (inactive) | 7.82 µM (inactive) | 13 µM (inactive) | 32.6 µM (inactive) | 6.71 µM (inactive) |  | 5.02 µM (inactive) |  | > 44.7 µM (inactive) | 10.1 µM (inactive) | 4.93 µM (inactive) | 5.86 µM (inactive) | 3.2 µM (inactive) |  |
| CC(=O)/C=C/c1c[nH]c(=O)[nH]c1=O | 128 µM (inactive) | 180 µM (inactive) | 187 µM (inactive) | 92 µM (inactive) | 214 µM (inactive) | 236 µM (inactive) | 151 µM (inactive) | 154 µM (inactive) | 204 µM (inactive) | 197 µM (inactive) | 223 µM (inactive) |  | 157 µM (inactive) | 243 µM (inactive) | 303 µM (inactive) | 305 µM (inactive) | 151 µM (inactive) | 229 µM (inactive) | 508 µM (inactive) |  |
| O=C(NCCCCCCNC(=O)n1cc(F)c(=O)[nH]c1=O)NCCCOCCOCCCNC(=O)C(O)C(O)C(O)C(O)CO (centres undefined) | > 2.05 µM (inactive) | > 2.5 µM (inactive) | > 2.5 µM (inactive) | > 2.5 µM (inactive) | > 2.5 µM (inactive) | > 2.5 µM (inactive) | > 2.5 µM (inactive) | > 2.5 µM (inactive) | > 2.5 µM (inactive) | > 2.5 µM (inactive) | > 2.5 µM (inactive) |  | > 2.27 µM (inactive) | > 1.53 µM (inactive) | > 2.5 µM (inactive) | > 2.05 µM (inactive) | > 2.5 µM (inactive) | > 2.5 µM (inactive) | > 2.5 µM (inactive) |  |
| N#CC1=C(N)C(C#N)(C#N)C(c2ccc(F)cc2)C=C1C1CC1 (centres undefined) | 4.01 µM (inactive) | 5.27 µM (inactive) | 4.14 µM (inactive) | 4.71 µM (inactive) | 11.4 µM (inactive) | 8.24 µM (inactive) | 5.68 µM (inactive) | 12.4 µM (inactive) |  | 6.52 µM (inactive) | 6.95 µM (inactive) | 4.21 µM (inactive) | 5.09 µM (inactive) | 11.5 µM (inactive) | 12.6 µM (inactive) | 13.8 µM (inactive) | 14.5 µM (inactive) | 6.03 µM (inactive) |  | 3.27 µM (inactive) |
| Nc1ncnc2c1sc1nc3ccccc3n12 |  | > 100 µM (inactive) | > 45 µM (inactive) | 19.8 µM (inactive) | > 61.7 µM (inactive) | 31 µM (inactive) | 53.1 µM (inactive) | > 100 µM (inactive) | 51.1 µM (inactive) | > 100 µM (inactive) | > 100 µM (inactive) | > 84.1 µM (inactive) | 23 µM (inactive) | > 71.3 µM (inactive) | > 93.3 µM (inactive) | > 49.1 µM (inactive) | > 83 µM (inactive) | > 100 µM (inactive) | > 100 µM (inactive) |  |
| O=C1CC(=O)N(c2ccccc2)N1/C(=C/c1ccccc1)c1ccccc1 | 16 µM (inactive) | 20.3 µM (inactive) | 25.6 µM (inactive) | 0.336 µM (active) |  | 16.3 µM (inactive) | 14.3 µM (inactive) | 19.8 µM (inactive) | 21.9 µM (inactive) | 23.7 µM (inactive) | 17.3 µM (inactive) | 19 µM (inactive) | 21 µM (inactive) |  | 29.2 µM (inactive) | 26.1 µM (inactive) | 25.5 µM (inactive) | 1.54 µM (inactive) | 20.5 µM (inactive) | 12.3 µM (inactive) |
| Nc1c(Br)cc2c(c1Br)Cc1cc(Br)ccc1-2 | > 100 µM (inactive) | > 100 µM (inactive) | > 100 µM (inactive) | > 100 µM (inactive) | 0.968 µM (active) |  | > 100 µM (inactive) | > 100 µM (inactive) | > 100 µM (inactive) |  | > 100 µM (inactive) | > 100 µM (inactive) | > 100 µM (inactive) |  |  | > 100 µM (inactive) | > 100 µM (inactive) | > 100 µM (inactive) | > 100 µM (inactive) | > 100 µM (inactive) |
| CCSc1nc(N)c2c(-c3ccccc3)c3c(nc2n1)CCC3 | > 100 µM (inactive) | > 100 µM (inactive) | > 100 µM (inactive) | > 100 µM (inactive) |  | > 100 µM (inactive) | > 100 µM (inactive) | > 100 µM (inactive) |  |  | > 100 µM (inactive) | > 100 µM (inactive) | > 100 µM (inactive) | > 100 µM (inactive) | 9.91 µM (inactive) | 4.56 µM (inactive) | > 100 µM (inactive) | > 100 µM (inactive) | > 100 µM (inactive) | > 100 µM (inactive) |
| COc1ccccc1NC(=O)/C(Cc1nc2ccc([N+](=O)[O-])cc2nc1O)=N\NC(=O)C[N+](C)(C)C | 46.8 µM (inactive) | 41.7 µM (inactive) | 31.8 µM (inactive) | 13.3 µM (inactive) |  | 62.5 µM (inactive) | > 100 µM (inactive) | 37.2 µM (inactive) | > 100 µM (inactive) | > 100 µM (inactive) | 48 µM (inactive) | 57.1 µM (inactive) | 72.8 µM (inactive) |  | > 100 µM (inactive) | > 100 µM (inactive) | 38.6 µM (inactive) |  | > 100 µM (inactive) | 1.44 µM (inactive) |
| O1C2C1C1OC1C1OC1C1OC21 (centres undefined) | > 100 µM (inactive) |  | > 100 µM (inactive) |  | > 100 µM (inactive) | > 100 µM (inactive) | > 100 µM (inactive) | > 100 µM (inactive) | > 100 µM (inactive) | > 100 µM (inactive) |  | > 100 µM (inactive) | > 100 µM (inactive) | > 100 µM (inactive) | > 100 µM (inactive) | > 100 µM (inactive) | > 100 µM (inactive) | > 100 µM (inactive) | > 100 µM (inactive) | > 100 µM (inactive) |
| COc1cc(/N=N\c2cccc(S(=O)(=O)O)c2)c(C)cc1/N=N\c1ccc(/C=C/c2ccc(/N=[N+](/[O-])c3ccc(/C=C/c4ccc(/N=N\c5cc(C)c(/N=N/c6cccc(S(=O)(=O)O)c6)cc5OC)cc4)c(S(=O)(=O)O)c3)cc2S(=O)(=O)O)cc1 | > 100 µM (inactive) | > 100 µM (inactive) | > 100 µM (inactive) | > 100 µM (inactive) | > 100 µM (inactive) | > 100 µM (inactive) | > 100 µM (inactive) | > 100 µM (inactive) | > 100 µM (inactive) | > 100 µM (inactive) | > 100 µM (inactive) |  | > 100 µM (inactive) | > 100 µM (inactive) | > 84.5 µM (inactive) | > 100 µM (inactive) | > 100 µM (inactive) | > 100 µM (inactive) | > 66.7 µM (inactive) |  |
| O=C(/C=C/c1ccc(O)c(O)c1)O[C@H]1CCCC[C@@H]1OC(=O)/C=C/c1ccc(O)c(O)c1 | 3.72 µM (inactive) | 5.51 µM (inactive) | 20.7 µM (inactive) | 4.8 µM (inactive) | 22.3 µM (inactive) | 8.09 µM (inactive) | 14.8 µM (inactive) | 22.9 µM (inactive) |  | 22.7 µM (inactive) | 3.52 µM (inactive) | 15.9 µM (inactive) | 19.2 µM (inactive) | 15.7 µM (inactive) | 15.6 µM (inactive) | 11.7 µM (inactive) | 21.8 µM (inactive) | 7.57 µM (inactive) | 17.9 µM (inactive) | 5.87 µM (inactive) |
